The text below walks through data of patent US5952335A, “Fused polycyclic heterocycle derivatives” (Eisai Co., Ltd., priority 1995, dated 1999).

Structures can show the parent of a compound that is named as a salt.

In this assay the test system is P388 cells. Description: in vitro Antitumor Test on P388 Cells (Mouse Leukemic Cells), MTT, 3 days. Type of assay: cell-based. The following applies: 72 h, 3 days incubation. As for the experimental part: P388 cells suspended in RPMI1640 medium (manufactured by Sanko Junyaku) containing 10% of fetal calf serum, (100 U/ml) of penicillin, 100 μg/ml of streptomycin, 5×10^-5 M of mercaptoethanol and 1 mM of sodium pyruvate were pipetted into a 96-well U-bottomed microplate at a ratio of 1.25×10^3 cells (0.1 ml) per well and incubated in a incubator containing 5% of carbon dioxide at 37° C. for a day. A compound of the present invention was dissolved in dimethyl sulfoxide to give a concentration of 10^-2 M and then diluted with the 10% fetal calf serum-containing RPMI1640 culture medium to give a concentration of 10^-4 or 10^-5 M. By taking this concentration as the maximal level, threefold serial dilution was effected with the use of the 10% fetal calf serum-containing RPMI1640 culture medium. Then these dilutions were added to the P388 incubation plate as described above at a ratio of 0.1 ml per well followed by incubation in an incubator containing 5% of carbon dioxide at 37° C. for 3 days. After the completion of the incubation, 0.05 ml/well of a 3.3 mg/ml solution of MTT [3-(4,5-dimethylthiazol-2-yl)-2,5-diphenyltetrazolium bromide] was added thereto and the incubation was continued for additional 2 hours. The microplate was centrifuged and the supernatant was aspirated off from each well. Then the formazan thus formed was dissolved in 0.1 ml of dimethyl sulfoxide and the absorbance thereof at 540 nm measured with a microplate reader was taken as an indication of the viable cell count. In accordance with the following formula, the inhibitory ratio was calculated and the 50% inhibitory concentration (IC50) of the test compound was determined: [formula] wherein T means the absorbance of a well containing the test compound; and C means the absorbance of a well containing no test compound.
A word on the IC50: it is the concentration that inhibits the measured activity by half. For `CN(C)CCn1c(=O)c2cccc3c4c5c(ccc4n(c1=O)c23)C(O)CCC5` (single isomer, unassigned; (+)) [Example 6, (+)-5-[2-(Dimethylamino)ethyl]-10-hydroxy-10,11,12,13-tetrahydro-4H-benzo[c]pyrimido[5,6,1-jk]carbazole-4,6(5H)-dione], half-maximal inhibition (IC50) required 1.7 nM.

In turn, `CN(C)CCn1c(=O)c2cccc3c4c5c(ccc4n(c1=O)c23)C(O)CCC5` (stereo not shown) [Example 5, 5-[2-(Dimethylamino)ethyl]-10-hydroxy-10,11,12,13-tetrahydro-4H-benzo[c]pyrimido[5,6,1-jk]carbazole-4,6(5H)-dione] gave a half-maximal inhibitory concentration (IC50) of 4.8 nM.

As to `CN(C)CCn1c(=O)c2cccc3c4c5c(ccc4n(c1=O)c23)C(O)CO5` (stereo not shown) [Example 9, 2,3-Dihydro-8-[2-(dimethylamino)ethyl]-3-hydroxy-7H-furo[3,2-c]pyrimido[5,6,1-jk]carbazole-7,9(8H)-dione], the half-maximal inhibitory concentration (IC50) turned out to be 6.7 nM.

`CN(C)CCn1c(=O)c2cccc3c4ccc5sccc5c4n(c1=O)c23` [Example 14, 2-[2-(Dimethylamino)ethyl]-1H-pyrimido[5,6,1-jk]thieno[3,2-a]carbazole-1,3(2H)-dione hydrochloride]: 74 nM corresponded to half-maximal inhibition (IC50).

`CN(C)CCn1c(=O)c2cccc3c4c5c(ccc4n(c1=O)c23)C(=O)CCO5` [Example 15, 2,3-Dihydro-9-[2-(dimethylamino)ethyl]-4H,8H-pyrano[3,2-c]pyrimido[5,6,1-jk]carbazole-4,8,10(9H)-trione hydrochloride] returned an IC50 of 140 nM.

Compound `CN(C)CCn1c(=O)c2cccc3c4c5occc(=O)c5ccc4n(c1=O)c23` [Example 16, 9-[2-(Dimethylamino)ethyl]-4H,8H-pyrano[3,2-c]pyrimido [5,6,1-jk]carbazole-4,8,10(9H)-trione hydrochloride] had an IC50 of 110 nM. This IC50 and that of the compound before are within 1.5-fold of each other.

The compound `CN(C)CCn1c(=O)c2cccc3c4ccc5occc5c4n(c1=O)c23` [Example 17, 2-[2-(Dimethylamino)ethyl]-1H-furo[3,2-a]pyrimido[5,6,1-jk]carbazole-1,3(2H)-dione hydrochloride] yielded an IC50 of 34 nM.

`CN(C)CCn1c(=O)c2cccc3c4ccc5ccccc5c4n(c1=O)c23` [Example 18, 2-[2-(Dimethylamino)ethyl]-1H-benzo[a]pyrimido[5,6,1-jk]carbazole-1,3(2H)-dione hydrochloride] yielded a half-inhibitory concentration (IC50) of 76 nM.

`CN(C)CCCn1c(=O)c2cccc3c4c5ccccc5ccc4n(c1=O)c23` [Example 19, 5-[3-(Dimethylamino)propyl]-4H-benzo[c]pyrimido[5,6,1-jk]carbazole-4,6(5H)-dione hydrochloride] gave an IC50 of 220 nM.

Consider `COc1ccc2c(ccc3c2c2cccc4c(=O)n(CCN(C)C)c(=O)n3c42)c1` [Example 22, 5-[2-(Dimethylamino)ethyl]-11-methoxy-4H-benzo[c]pyrimido [5,6,1-jk]carbazole-4,6(5H)-dione hydrochloride], for which the half-maximal inhibitory concentration (IC50) is 290 nM. The IC50 values of the last two compounds are within 1.5-fold of each other.

`COc1cccc2c1ccc1c2c2cccc3c(=O)n(CCN(C)C)c(=O)n1c32` [Example 23, 5-[2-(Dimethylamino)ethyl]-10-methoxy-4H-benzo[c]pyrimido[5,6,1-jk]carbazole-4,6(5H)-dione hydrochloride] yielded an IC50 of 81 nM.

For the compound `CN(C)CCn1c(=O)c2c3ccccc3nc3c4ccccc4n(c1=O)c32` [Example 24, 2-[2-(Dimethylamino)ethyl]-1H-benzo[b]pyrimido[1,6,5-lm]-4-azacarbazole-1,3(2H)-dione dihydrochloride], the IC50 was 320 nM. Compared with the last compound, the IC50 is about 4-fold higher.

As for `CN(C)CCn1c(=O)c2cccc3c4c5c(ccc4n(c1=O)c23)C(=O)OCC5` [Example 25, 1,2-Dihydro-9-[2-(dimethylamino)ethyl]-4H,8H-pyrano[3,4-c]pyrimido[5,6,1-jk]carbazole-4,8,10(9H)-trione hydrochloride], the IC50 came to 28 nM.

Compound `CN(C)CCn1c(=O)c2cc([N+](=O)[O-])cc3c2n(c1=O)-c1cc2ccccc2cc1O3` [Example 27, 2-[2-(Dimethylamino)ethyl]-5-nitro-1H-benzo[b]pyrimido [5,6,1-kl]phenoxazine-1,3(2H)-dione hydrochloride] yielded an IC50 of 490 nM.

Regarding `CN(C)CCn1c(=O)c2cc(Cl)cc3c4c5ccccc5ccc4n(c1=O)c23` [Example 28, 2-Chloro-5-[2-(dimethylamino)ethyl]-4H-benzo[c]pyrimido [5,6,1-jk]carbazole-4,6(5H)-dione hydrochloride], inhibition was half-maximal at 70 nM (IC50).

Compound `CN(C)CCn1c(=O)c2cccc3c4c5c(=O)[nH]ccc5ccc4n(c1=O)c23` [Example 29, 9-[2-(Dimethylamino)ethyl]-8H-pyrido[4,3-c]pyrimido[5,6,1-jk]carbazole-1,8,10(2H,9H)-trione hydrochloride] had an IC50 of 71 nM.

Turning to `CN(C)CCn1c(=O)c2cccc3c4c5ccccc5ncc4n(c1=O)c23` [Example 30, 5-[2-(Dimethylamino)ethyl]-4H-quino[4',3'-4,5]pyrrolo [3,2,1-ij]quinazoline-4,6(5H)-dione dihydrochloride], half-maximal inhibition (IC50) was put at 32 nM. Against the preceding compound, the IC50 is about 2.2-fold lower.

`CN(C)CCn1c(=O)c2cc(N)cc3c2n(c1=O)-c1cc2ccccc2cc1O3` [Example 31, 5-Amino-2-[2-(dimethylamino)ethyl]-1H-benzo[b]pyrimido [5,6,1-kl]phenoxazine-1,3(2H)-dione dihydrochloride] showed an IC50 of 110 nM.

In turn, `COc1cccc2ccc3c(c4cccc5c(=O)n(CCN(C)C)c(=O)n3c54)c12` [Example 32, 5-[2-(Dimethylamino)ethyl]-13-methoxy-4H-benzo[c]pyrimido [5,6,1-jk]carbazole-4,6(5H)-dione hydrochloride] displayed a half-inhibitory concentration (IC50) of 410 nM.

For `CN(C)CCCCn1c(=O)c2cccc3c4c5ccccc5ccc4n(c1=O)c23` [Example 34, 5-[4-(Dimethylamino)butyl]-4H-benzo[c]pyrimido[5,6,1-jk]carbazole-4,6(5H)-dione hydrochloride], it took 450 nM to reach half-maximal inhibition (IC50).

`CN(C)CCn1c(=O)c2cccc3c4c5cccnc5ccc4n(c1=O)c23` [Example 36, 9-[2-(Dimethylamino)ethyl]-8H-pyrido[2,3-c]pyrimido[5,6,1-jk]carbazole-8,10(9H)-dione dihydrochloride] had an IC50 of 14 nM.

Compound `CN(C)CCn1c(=O)c2cc([N+](=O)[O-])cc3c4c5ccccc5ccc4n(c1=O)c23` [Example 37, 5-[2-(Dimethylamino)ethyl]-2-nitro-4H-benzo[c]pyrimido [5,6,1-jk]carbazole-4,6(5H)-dione hydrochloride] gave a 50% inhibitory concentration (IC50) of 380 nM.

For the compound `Cc1cc2c(=O)n(CCN(C)C)c(=O)n3c4ccc5ccccc5c4c(c1)c23` [Example 38, 5-[2-(Dimethylamino)ethyl]-2-methyl-4H-benzo[c]pyrimido [5,6,1-jk]carbazole-4,6(5H)-dione hydrochloride], the IC50 was 110 nM.

In the case of `CN(C)CCn1c(=O)c2cccc3c4c5c(ccc4n(c1=O)c23)C(=O)NCC5` [Example 39, 1,2-Dihydro-9-[2-(dimethylamino)ethyl]-8H-pyrido[3,4-c]pyrimido[5,6,1-jk]carbazole-4,8,10(3H,9H)-trione hydrochloride], the IC50 was 7.7 nM.

For the compound `CN(C)CCn1c(=O)c2cccc3c4c5c(ccc4n(c1=O)c23)OCO5` [Example 40, 8-[2-(Dimethylamino)ethyl]-7H-1,3-dioxolo[4,5-c]pyrimido [5,6,1-jk]carbazole-7,9(8H)-dione hydrochloride], the IC50 is 220 nM.

In turn, `CN(C)CCn1c(=O)c2cccc3c4c5ccc(Br)cc5ccc4n(c1=O)c23` [Example 41, 11-Bromo-5-[2-(dimethylamino)ethyl]-4H-benzo[c]pyrimido [5,6,1-jk]carbazole-4,6(5H)-dione hydrochloride] yielded a 50% inhibitory concentration (IC50) of 320 nM.

Turning to `CN(C)CCn1c(=O)c2cccc3c4cc5ccccc5cc4n(c1=O)c23` [Example 42, 2-[2-(Dimethylamino)ethyl]-1H-benzo[b]pyrimido[5,6,1-jk]carbazole-1,3(2H)-dione hydrochloride], the 50% inhibitory concentration (IC50) was 49 nM.

`CN(C)CCn1c(=O)c2cccc3c4c5c(ccc4n(c1=O)c23)CCCC5` [Example 43, 5-[2-(Dimethylamino)ethyl]-10,11,12,13-tetrahydro-4H-benzo[b]pyrimido[5,6,1-jk]carbazole-4,6(5H)-dione hydrochloride]: the IC50 was 66 nM.

`CN(C)CCn1c(=O)c2cccc3c4c5c(ccc4n(c1=O)c23)C(=O)C(C)(C)CC5` [Example 44, 12,13-Dihydro-11,11-dimethyl-5-[2-(dimethylamino)ethyl]-4H-benzo[c]pyrimido[5,6,1-jk]carbazole-4,6,10(5H,11H)-trione hydrochloride] registered a concentration for half-maximal inhibition (IC50) of 360 nM.

Compound `COc1cc2c(=O)n(CCN(C)C)c(=O)n3c4ccc5ccccc5c4c(c1)c23` [Example 45, 5-[2-(Dimethylamino)ethyl]-2-methoxy-4H-benzo[c]pyrimido [5,6,1-jk]carbazole-4,6(5H)-dione hydrochloride] displayed an IC50 of 160 nM.

`CN(C)CCn1c(=O)c2cccc3c4c5ccc(O)cc5ccc4n(c1=O)c23` [Example 46, 5-[2-(Dimethylamino)ethyl]-11-hydroxy-4H-benzo[c]pyrimido [5,6,1-jk]carbazole-4,6(5H)-dione hydrochloride] showed an IC50 of 77 nM.
